Laboratory results from US20240018158A1, “BRM TARGETING COMPOUNDS AND ASSOCIATED METHODS OF USE” (Prelude Therapeutics Incorporated, priority 2020, published 2024).

Key:
SMARCA2 = SMARCA2 (Homo sapiens (Human), UniProt P51531); test: SMARCA2 HiBiT degradation assay in HeLa cells; type: cell-based; conditions: 18 hours; for DC50: read-out: DC50 (SM2-HeLa) SMARCA2 degradation potency; for Dmax: read-out: Dmax % (SM2-HeLa) maximum SMARCA2 degradation within the concentrations tested
Description: (§1) HiBiT peptide knock-in of SMARCA2 in LgBiT expressing HEK293T cells was performed by CRISPR-mediated tagging system as described Promega. The homozygous HiBiT knock-in on c-terminus SMARCA2 was confirmed by sanger sequence. SMARCA2-HiBiT knock-in Hela monoclonal cell (CS302366) and SMARCA4-HiBiT knock-in Hela monoclonal cell (CS3023226) were purchased from Promega. The heterozygous HiBiT-knock-in was confirmed by sanger sequence in both SMARCA2-HiBiT and SMARCA4-HiBiT monoclonal cells.
(§2) Dispense 10 μL aliquot of prepared Hela-SMARCA2-HiBiT or Hela-SMARCA4-HiBiT cells (1:1 ratio of cells:Trypan Blue (#1450013, Bio-Rad)) onto cell counting slide (#145-0011, Bio-Rad) and obtain cell density and cell viability using cell counter (TC20, Bio-Rad). Remove appropriate volume of resuspended cells from culture flask to accommodate 2500 cells/well @ 20 μL/well. Transfer Hela-HiBiT cells to 50 ml conical (#430290, Corning). Spin down at 1000 rpm for 5 min using tabletop centrifuge (SPINCHRON 15, Beckman). Discard supernatant and resuspend cell pellet in modified EMEM (#30-2003, ATCC) cell culture media containing 10% FBS (F2422-500ML, Sigma), and 1×Penicillin/Streptomycin (200 g/1) (30-002-CI, Corning) to a cell density of 125,000 cells/ml. Dispense 20 μL of resuspended Hela-HiBit cells per well in 384-well TC treated plate (#12-565-343, Thermo Scientific) using standard cassette (#50950372, Thermo Scientific) on Multidrop Combi (#5840310, Thermo Scientific) inside laminar flow cabinet. Dispense test compounds onto plates using digital liquid dispenser (D300E, Tecan). Incubate plates in humidified tissue culture incubator @37° C. for 18 hours. Add 20 ul of prepared Nano-Glo® HiBiT Lytic detection buffer (N3050, Promega) to each well of 384-well plate using small tube cassette (#24073295, Thermo Scientific) on Multidrop Combi, incubate @ RT for 30-60 min. Read plates on microplate reader (Envision 2105, PerkinElmer) using 384 well Ultra-Sensitive luminescence mode. Raw data files and compound information reports are swept into centralized data lake and deconvoluted using automated scripts designed by TetraScience, Inc. Data analysis, curve-fitting and reporting done in Dotmatics Informatics Suite using Screening Ultra module.

SMARCA4 = SMARCA4 (Homo sapiens (Human), UniProt P51532); test: SMARCA4 HiBiT degradation assay in HeLa cells; type: cell-based; conditions: 18 hours; for DC50: read-out: DC50 (SM4-HeLa) SMARCA4 degradation potency; for Dmax: HeLa, read-out: Dmax % (SM4-HeLa) maximum SMARCA4 degradation within the concentrations tested
SMARCA4, sequence (P51532 whole entry): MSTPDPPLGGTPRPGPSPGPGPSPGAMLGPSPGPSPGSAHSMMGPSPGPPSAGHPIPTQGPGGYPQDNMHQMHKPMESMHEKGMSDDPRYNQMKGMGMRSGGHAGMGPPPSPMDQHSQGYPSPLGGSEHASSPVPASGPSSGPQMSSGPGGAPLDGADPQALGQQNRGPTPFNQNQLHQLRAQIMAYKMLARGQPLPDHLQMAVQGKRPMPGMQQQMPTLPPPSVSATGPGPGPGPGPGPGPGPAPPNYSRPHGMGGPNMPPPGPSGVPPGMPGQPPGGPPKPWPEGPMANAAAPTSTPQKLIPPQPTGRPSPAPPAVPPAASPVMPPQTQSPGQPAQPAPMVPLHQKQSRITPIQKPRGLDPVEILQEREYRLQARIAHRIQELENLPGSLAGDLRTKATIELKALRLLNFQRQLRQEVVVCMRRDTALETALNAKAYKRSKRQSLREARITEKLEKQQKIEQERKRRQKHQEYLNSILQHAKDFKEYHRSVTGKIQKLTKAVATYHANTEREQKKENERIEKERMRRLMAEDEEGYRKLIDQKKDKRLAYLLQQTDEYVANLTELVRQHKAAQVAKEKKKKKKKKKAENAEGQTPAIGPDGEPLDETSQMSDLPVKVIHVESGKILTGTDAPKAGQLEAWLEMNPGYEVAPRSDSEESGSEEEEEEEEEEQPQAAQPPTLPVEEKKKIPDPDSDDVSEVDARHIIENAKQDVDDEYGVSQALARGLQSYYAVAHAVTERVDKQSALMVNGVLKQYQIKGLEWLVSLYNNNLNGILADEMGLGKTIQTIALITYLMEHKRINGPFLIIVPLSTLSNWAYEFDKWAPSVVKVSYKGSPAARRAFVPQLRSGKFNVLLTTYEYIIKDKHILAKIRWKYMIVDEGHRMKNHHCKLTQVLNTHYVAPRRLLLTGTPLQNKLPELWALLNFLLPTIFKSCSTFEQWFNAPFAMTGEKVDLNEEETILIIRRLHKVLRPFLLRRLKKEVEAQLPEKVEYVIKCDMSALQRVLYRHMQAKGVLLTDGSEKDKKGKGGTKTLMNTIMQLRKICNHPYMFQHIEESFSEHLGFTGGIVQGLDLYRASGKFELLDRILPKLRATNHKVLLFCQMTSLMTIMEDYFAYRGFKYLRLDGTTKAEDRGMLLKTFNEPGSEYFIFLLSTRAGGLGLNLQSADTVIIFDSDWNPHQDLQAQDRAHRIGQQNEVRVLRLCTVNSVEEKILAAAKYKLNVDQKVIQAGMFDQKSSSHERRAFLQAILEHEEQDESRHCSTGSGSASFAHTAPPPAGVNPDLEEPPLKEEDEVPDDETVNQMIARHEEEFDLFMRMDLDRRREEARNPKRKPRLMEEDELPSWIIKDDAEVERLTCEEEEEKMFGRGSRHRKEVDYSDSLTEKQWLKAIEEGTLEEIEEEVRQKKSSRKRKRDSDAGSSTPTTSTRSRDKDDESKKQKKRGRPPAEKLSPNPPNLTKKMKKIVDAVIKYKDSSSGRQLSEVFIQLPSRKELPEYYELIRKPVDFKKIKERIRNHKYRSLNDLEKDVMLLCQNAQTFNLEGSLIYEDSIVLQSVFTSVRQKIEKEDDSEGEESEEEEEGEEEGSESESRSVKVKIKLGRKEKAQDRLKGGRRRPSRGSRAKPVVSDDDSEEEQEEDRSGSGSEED
Description: as §1, §2

SMARCA2, sequence (P51531 whole entry): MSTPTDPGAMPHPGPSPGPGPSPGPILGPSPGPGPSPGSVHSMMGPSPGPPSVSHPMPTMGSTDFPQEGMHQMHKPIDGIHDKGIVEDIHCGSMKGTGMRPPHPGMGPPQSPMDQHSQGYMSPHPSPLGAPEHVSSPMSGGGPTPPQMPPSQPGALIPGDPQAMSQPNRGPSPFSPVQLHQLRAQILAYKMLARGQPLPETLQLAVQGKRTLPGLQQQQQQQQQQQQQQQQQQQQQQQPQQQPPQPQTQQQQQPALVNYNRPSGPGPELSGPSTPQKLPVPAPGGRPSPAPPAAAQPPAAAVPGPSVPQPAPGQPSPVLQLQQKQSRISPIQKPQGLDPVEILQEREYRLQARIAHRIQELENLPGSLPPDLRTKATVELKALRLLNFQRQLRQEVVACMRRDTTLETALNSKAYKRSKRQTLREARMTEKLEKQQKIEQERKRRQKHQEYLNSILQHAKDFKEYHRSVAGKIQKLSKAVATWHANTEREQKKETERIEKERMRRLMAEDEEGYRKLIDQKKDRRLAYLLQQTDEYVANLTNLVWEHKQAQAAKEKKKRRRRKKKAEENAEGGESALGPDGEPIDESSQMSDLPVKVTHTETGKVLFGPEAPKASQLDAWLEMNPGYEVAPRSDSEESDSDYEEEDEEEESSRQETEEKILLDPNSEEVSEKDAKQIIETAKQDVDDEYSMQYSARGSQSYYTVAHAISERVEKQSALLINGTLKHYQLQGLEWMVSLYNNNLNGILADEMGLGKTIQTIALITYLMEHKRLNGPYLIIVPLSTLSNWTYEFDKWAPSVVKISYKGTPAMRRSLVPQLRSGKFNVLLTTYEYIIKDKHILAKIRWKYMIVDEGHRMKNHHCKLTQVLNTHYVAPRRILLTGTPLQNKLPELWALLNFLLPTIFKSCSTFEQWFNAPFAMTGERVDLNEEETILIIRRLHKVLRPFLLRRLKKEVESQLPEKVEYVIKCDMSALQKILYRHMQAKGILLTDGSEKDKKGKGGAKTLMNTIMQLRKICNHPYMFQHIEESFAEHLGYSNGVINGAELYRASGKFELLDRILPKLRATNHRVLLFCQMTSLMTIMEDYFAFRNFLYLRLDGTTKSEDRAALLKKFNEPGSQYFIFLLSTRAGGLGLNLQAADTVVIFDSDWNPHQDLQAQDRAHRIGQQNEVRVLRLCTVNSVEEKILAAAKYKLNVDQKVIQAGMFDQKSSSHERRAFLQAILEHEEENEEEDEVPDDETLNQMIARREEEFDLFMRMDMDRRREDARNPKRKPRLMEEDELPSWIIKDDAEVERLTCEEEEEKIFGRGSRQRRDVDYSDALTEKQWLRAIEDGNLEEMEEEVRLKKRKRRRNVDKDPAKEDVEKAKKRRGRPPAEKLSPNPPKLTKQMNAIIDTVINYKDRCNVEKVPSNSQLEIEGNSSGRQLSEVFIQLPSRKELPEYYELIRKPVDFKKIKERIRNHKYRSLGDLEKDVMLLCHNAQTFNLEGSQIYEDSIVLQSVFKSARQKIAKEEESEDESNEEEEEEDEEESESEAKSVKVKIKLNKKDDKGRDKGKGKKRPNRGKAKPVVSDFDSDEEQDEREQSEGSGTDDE

| SMILES | DC50 (SMARCA2) | Dmax (SMARCA2) | DC50 (SMARCA4) | Dmax (SMARCA4) |
| --- | --- | --- | --- | --- |
| Cc1ncsc1-c1ccc([C@H](C)NC(=O)[C@@H]2C[C@@H](O)CN2C(=O)[C@@H](c2cc(O[C@@H](C)CN3CCC(CN4CCN5c6cc(-c7ccccc7O)nnc6NC[C@H]5C4)CC3)no2)C(C)C)cc1 [Example 100, (2S,4R)-4-hydroxy-1-((R)-2-(3-(((S)-1-(4-(((S)-2-(2-hydroxyphenyl)-5,6,6a,7,9,10-hexahydro-8H-pyrazino[1′,2′:4,5]pyrazino[2,3-c]pyridazin-8-yl)methyl)piperidin-1-yl)propan-2-yl)oxy)isoxazol-5-yl)-3-methylbutanoyl)-N-((S)-1-(4-(4-methylthiazol-5-yl)phenyl)ethyl)pyrrolidine-2-carboxamide] | < 100 nM | > 75% | < 100 nM | > 75% |
| Cc1ncsc1-c1ccc([C@H](C)NC(=O)[C@@H]2C[C@@H](O)CN2C(=O)[C@@H](c2cc(OCCN3CCC(C(C)N4CCN5c6cc(-c7ccccc7O)nnc6NC[C@H]5C4)CC3)no2)C(C)C)cc1 (single isomer, unassigned) [Example 58] | < 100 nM | > 75% | < 100 nM | > 75% |
| Cc1ncsc1-c1ccc([C@H](C)NC(=O)[C@@H]2C[C@@H](O)CN2C(=O)[C@@H](c2cc(OCCN3CC4CC(N5CCN6c7cc(-c8ccccc8O)nnc7NC[C@H]6C5)CC4C3)no2)C(C)C)cc1 (stereo partly drawn) [Example 47, (2S,4R)-4-hydroxy-1-((2R)-2-(3-(2-(5-((S)-2-(2-hydroxyphenyl)-5,6,6a,7,9,10-hexahydro-8H-pyrazino[1′,2′:4,5]pyrazino[2,3-c]pyridazin-8-yl)hexahydrocyclopenta[c]pyrrol-2(1H)-yl)ethoxy)isoxazol-5-yl)-3-methylbutanoyl)-N-((S)-1-(4-(4-methylthiazol-5-yl)phenyl)ethyl)pyrrolidine-2-carboxamide] | < 100 nM | > 75% | < 100 nM | > 75% |
| Cc1ncsc1-c1ccc([C@H](C)NC(=O)[C@@H]2C[C@@H](O)CN2C(=O)[C@@H](c2cc(OCCN(C)C3CCC(N4CCN5c6cc(-c7ccccc7O)nnc6NC[C@H]5C4)CC3)no2)C(C)C)cc1 (stereo partly drawn) [Example 43, (2S,4R)-4-hydroxy-1-((R)-2-(3-(2-((4-((S)-2-(2-hydroxyphenyl)-5,6,6a,7,9,10-hexahydro-8H-pyrazino[1′,2′:4,5]pyrazino[2,3-c]pyridazin-8-yl)cyclohexyl)(methyl)amino)ethoxy)isoxazol-5-yl)-3-methylbutanoyl)-N-((S)-1-(4-(4-methylthiazol-5-yl)phenyl)ethyl)pyrrolidine-2-carboxamide] | < 100 nM | > 75% | < 100 nM | > 75% |
| Cc1ncsc1-c1ccc([C@H](C)NC(=O)[C@@H]2C[C@@H](O)CN2C(=O)[C@@H](c2cc(OCCN3CCC(N4CCN5c6cc(-c7ccccc7O)nnc6NCC5(C)C4)C3)no2)C(C)C)cc1 (stereo partly drawn) [Example 72, (2S,4R)-4-hydroxy-1-((2R)-2-(3-(2-(3-(2-(2-hydroxyphenyl)-6a-methyl-5,6,6a,7,9,10-hexahydro-8H-pyrazino[1′,2′:4,5]pyrazino[2,3-c]pyridazin-8-yl)pyrrolidin-1-yl)ethoxy)isoxazol-5-yl)-3-methylbutanoyl)-N-((S)-1-(4-(4-methylthiazol-5-yl)phenyl)ethyl)pyrrolidine-2-carboxamide] | < 100 nM |  | < 100 nM |  |
| Cc1ncsc1-c1ccc([C@H](C)NC(=O)[C@@H]2C[C@@H](O)CN2C(=O)C(c2cc(O[C@H](C)C(=O)N3CCC(N4CCN5c6cc(-c7ccccc7O)nnc6NC[C@H]5C4)C3)no2)C(C)C)cc1 (stereo partly drawn) [Example 28, (2S,4R)-4-hydroxy-1-(2-(3-(((2R)-1-(3-((S)-2-(2-hydroxyphenyl)-5,6,6a,7,9,10-hexahydro-8H-pyrazino[1′,2′:4,5]pyrazino[2,3-c]pyridazin-8-yl)pyrrolidin-1-yl)-1-oxopropan-2-yl)oxy)isoxazol-5-yl)-3-methylbutanoyl)-N-((S)-1-(4-(4-methylthiazol-5-yl)phenyl)ethyl)pyrrolidine-2-carboxamide] | < 100 nM | > 75% | 100 to 1000 nM | ≤ 50% |
| Cc1ncsc1-c1ccc([C@H](C)NC(=O)[C@@H]2C[C@@H](O)CN2C(=O)[C@@H](c2cc(OCC(=O)N3CCC(N4CCN5c6cc(-c7ccccc7O)nnc6NC[C@H]5C4)C(C)C3)no2)C(C)C)cc1 (single isomer, unassigned) [Example 30] | < 100 nM | > 75% | < 100 nM | > 75% |
| Cc1ncsc1-c1ccc([C@H](C)NC(=O)[C@@H]2C[C@@H](O)CN2C(=O)[C@@H](c2cc(OCCN3CCC(N4C[C@@H]5CNc6nnc(-c7ccccc7O)cc6N5C[C@@H]4C)C3)no2)C(C)C)cc1 (stereo partly drawn) [Example 102, (2S,4R)-4-hydroxy-1-((2R)-2-(3-(2-(3-((6aS,9S)-2-(2-hydroxyphenyl)-9-methyl-5,6,6a,7,9,10-hexahydro-8H-pyrazino[1′,2′:4,5]pyrazino[2,3-c]pyridazin-8-yl)pyrrolidin-1-yl)ethoxy)isoxazol-5-yl)-3-methylbutanoyl)-N-((S)-1-(4-(4-methylthiazol-5-yl)phenyl)ethyl)pyrrolidine-2-carboxamide] | < 100 nM | > 75% | < 100 nM | > 75% |
| Cc1ncsc1-c1ccc([C@H](C)NC(=O)[C@@H]2C[C@@H](O)CN2C(=O)[C@@H](c2cc(OCCN3CCC(N4CCC(N5CCN6c7cc(-c8ccccc8O)nnc7NC[C@H]6C5)C4)CC3)no2)C(C)C)cc1 (single isomer, unassigned) [Example 69] | < 100 nM | > 75% | < 100 nM | > 75% |
| Cc1ncsc1-c1ccc([C@H](C)NC(=O)[C@@H]2C[C@@H](O)CN2C(=O)[C@@H](c2cc(O[C@H](C)C(=O)N3CCC(N4CCN5c6cc(-c7ccccc7O)nnc6NC[C@H]5C4)CC3)no2)C(C)C)cc1 [Example 73, (2S,4R)-4-hydroxy-1-((R)-2-(3-(((R)-1-(4-((S)-2-(2-hydroxyphenyl)-5,6,6a,7,9,10-hexahydro-8H-pyrazino[1′,2′:4,5]pyrazino[2,3-c]pyridazin-8-yl)piperidin-1-yl)-1-oxopropan-2-yl)oxy)isoxazol-5-yl)-3-methylbutanoyl)-N-((S)-1-(4-(4-methylthiazol-5-yl)phenyl)ethyl)pyrrolidine-2-carboxamide] | < 100 nM | > 75% | 100 to 1000 nM | 50 to 75% |
| Cc1ncsc1-c1ccc([C@H](C)NC(=O)[C@@H]2C[C@@H](O)CN2C(=O)[C@@H](c2cc(OCCN3CCC(N4CCC(N5CCN6c7cc(-c8ccccc8O)nnc7NC[C@H]6C5)CC4)C3)no2)C(C)C)cc1 (stereo partly drawn) [Example 26, (2S,4R)-4-hydroxy-1-((2R)-2-(3-(2-(3-(4-((S)-2-(2-hydroxyphenyl)-5,6,6a,7,9,10-hexahydro-8H-pyrazino[1′,2′:4,5]pyrazino[2,3-c]pyridazin-8-yl)piperidin-1-yl)pyrrolidin-1-yl)ethoxy)isoxazol-5-yl)-3-methylbutanoyl)-N-((S)-1-(4-(4-methylthiazol-5-yl)phenyl)ethyl)pyrrolidine-2-carboxamide] | < 100 nM |  | 100 to 1000 nM |  |
| Cc1ncsc1-c1ccc([C@H](C)NC(=O)[C@@H]2C[C@@H](O)CN2C(=O)[C@@H](c2cc(OCCN3CCCC(CN4CCN5c6cc(-c7ccccc7O)nnc6NC[C@H]5C4)C3)no2)C(C)C)cc1 (single isomer, unassigned) [Example 86] | < 100 nM | > 75% | < 100 nM | > 75% |
| CCC(CN1CCC(N2CCN3c4cc(-c5ccccc5O)nnc4NC[C@H]3C2)CC1)Oc1cc([C@H](C(=O)N2C[C@H](O)C[C@H]2C(=O)N[C@@H](C)c2ccc(-c3scnc3C)cc2)C(C)C)on1 (stereo partly drawn) [Example 60, (2S,4R)-4-hydroxy-1-(2-(3-((1-(4-((S)-2-(2-hydroxyphenyl)-5,6,6a,7,9,10-hexahydro-8H-pyrazino[1′,2′:4,5]pyrazino[2,3-c]pyridazin-8-yl)piperidin-1-yl)butan-2-yl)oxy)isoxazol-5-yl)-3-methylbutanoyl)-N-((S)-1-(4-(4-methylthiazol-5-yl)phenyl)ethyl)pyrrolidine-2-carboxamide] | < 100 nM | > 75% | < 100 nM | 50 to 75% |
